Experimental data: the NIST ThermoML archive (doi:10.1016/j.jct.2011.01.014)
± gives the expanded uncertainty stated by the source.

Assay: xn = mol fraction of the nth substance listed
Settings: 101 kPa, Liquid; for speed of sound: sound velocity cell; for mass density: Vibrating tube method

CC(=O)[O-].[NH3+]CCO [2-hydroxyethylammonium acetate] + CCO
Settings	mass density [kg/m3]	speed of sound [m/s]
305.65 K, x1 = 0.0497	–	1161.8 ± 1.4
305.65 K, x1 = 0.101	–	1201.5 ± 1.4
305.65 K, x1 = 0.201	–	1273.6 ± 1.6
305.65 K, x1 = 0.3009	–	1359.9 ± 1.7
305.65 K, x1 = 0.4057	–	1421.5 ± 1.9
305.65 K, x1 = 0.4946	–	1483 ± 2.1
305.65 K, x1 = 0.603	–	1556.5 ± 2.3
305.65 K, x1 = 0.6765	–	1601.8 ± 2.4
305.65 K, x1 = 0.7918	–	1660.8 ± 2.7
305.65 K, x1 = 0.8825	–	1708.2 ± 2.9
305.65 K, x1 = 0.9539	–	1748.7 ± 3.1
305.65 K, x1 = 1	–	1773.4 ± 3.2
308.15 K, x1 = 0.0497	813.395 ± 0.71	1153.6 ± 1.4
308.15 K, x1 = 0.101	846.797 ± 0.6	1193.5 ± 1.4
308.15 K, x1 = 0.201	902.073 ± 0.56	1266 ± 1.6
308.15 K, x1 = 0.3009	949.706 ± 0.53	1352.8 ± 1.7
308.15 K, x1 = 0.4057	992.164 ± 0.59	1414.7 ± 1.9
308.15 K, x1 = 0.4946	1023.13 ± 0.71	1476.4 ± 2.1
308.15 K, x1 = 0.603	1056.17 ± 0.97	1550.2 ± 2.3
308.15 K, x1 = 0.6765	1076.23 ± 1.2	1595.6 ± 2.4
308.15 K, x1 = 0.7918	1104.25 ± 1.6	1654.6 ± 2.7
308.15 K, x1 = 0.8825	1123.77 ± 2	1702.2 ± 2.9
308.15 K, x1 = 0.9539	1136.79 ± 2.3	1742.2 ± 3.1
308.15 K, x1 = 1	1143.39 ± 2.5	1767.9 ± 3.2
310.65 K, x1 = 0.0497	811.269 ± 0.71	1145.4 ± 1.4
310.65 K, x1 = 0.101	844.752 ± 0.6	1185.5 ± 1.4
310.65 K, x1 = 0.201	900.153 ± 0.56	1258.5 ± 1.6
310.65 K, x1 = 0.3009	947.892 ± 0.53	1345.7 ± 1.7
310.65 K, x1 = 0.4057	990.442 ± 0.59	1407.8 ± 1.9
310.65 K, x1 = 0.4946	1021.48 ± 0.71	1469.7 ± 2.1
310.65 K, x1 = 0.603	1054.53 ± 0.97	1544 ± 2.3
310.65 K, x1 = 0.6765	1074.71 ± 1.2	1589.6 ± 2.4
310.65 K, x1 = 0.7918	1102.76 ± 1.6	1648.5 ± 2.7
310.65 K, x1 = 0.8825	1122.31 ± 2	1696.2 ± 2.9
310.65 K, x1 = 0.9539	1135.37 ± 2.3	1735.9 ± 3.1
310.65 K, x1 = 1	1141.96 ± 2.5	1762.5 ± 3.2
313.15 K, x1 = 0.0497	809.131 ± 0.71	1137.2 ± 1.4
313.15 K, x1 = 0.101	842.694 ± 0.6	1177.6 ± 1.4
313.15 K, x1 = 0.201	898.225 ± 0.56	1251 ± 1.6
313.15 K, x1 = 0.3009	946.069 ± 0.54	1338.7 ± 1.7
313.15 K, x1 = 0.4057	988.723 ± 0.59	1401 ± 1.9
313.15 K, x1 = 0.4946	1019.83 ± 0.71	1463.2 ± 2.1
313.15 K, x1 = 0.603	1052.87 ± 0.96	1537.7 ± 2.3
313.15 K, x1 = 0.6765	1073.17 ± 1.2	1583.5 ± 2.4
313.15 K, x1 = 0.7918	1101.31 ± 1.6	1642.5 ± 2.7
313.15 K, x1 = 0.8825	1120.85 ± 2	1690.2 ± 2.9
313.15 K, x1 = 0.9539	1133.96 ± 2.3	1729.9 ± 3.1
313.15 K, x1 = 1	1140.55 ± 2.5	1757.2 ± 3.2
315.65 K, x1 = 0.0497	806.984 ± 0.71	1129.1 ± 1.4
315.65 K, x1 = 0.101	840.628 ± 0.6	1169.7 ± 1.4
315.65 K, x1 = 0.201	896.29 ± 0.56	1243.5 ± 1.6
315.65 K, x1 = 0.3009	944.245 ± 0.54	1331.6 ± 1.7
315.65 K, x1 = 0.4057	986.994 ± 0.59	1394.2 ± 1.9
315.65 K, x1 = 0.4946	1018.18 ± 0.71	1456.6 ± 2.1
315.65 K, x1 = 0.603	1051.28 ± 0.96	1531.4 ± 2.3
315.65 K, x1 = 0.6765	1071.63 ± 1.2	1577.4 ± 2.4
315.65 K, x1 = 0.7918	1099.86 ± 1.6	1636.6 ± 2.7
315.65 K, x1 = 0.8825	1119.38 ± 1.9	1684.4 ± 2.9
315.65 K, x1 = 0.9539	1132.54 ± 2.3	1723.9 ± 3.1
315.65 K, x1 = 1	1139.18 ± 2.5	1751.9 ± 3.2
318.15 K, x1 = 0.0497	804.825 ± 0.72	1120.9 ± 1.4
318.15 K, x1 = 0.101	838.551 ± 0.6	1161.8 ± 1.4
318.15 K, x1 = 0.201	894.347 ± 0.56	1235.9 ± 1.6
318.15 K, x1 = 0.3009	942.413 ± 0.54	1324.5 ± 1.7
318.15 K, x1 = 0.4057	985.266 ± 0.59	1387.3 ± 1.9
318.15 K, x1 = 0.4946	1016.52 ± 0.71	1450 ± 2.1
318.15 K, x1 = 0.603	1049.69 ± 0.96	1525.2 ± 2.3
318.15 K, x1 = 0.6765	1070.09 ± 1.2	1571.3 ± 2.4
318.15 K, x1 = 0.7918	1098.4 ± 1.6	1630.7 ± 2.7
318.15 K, x1 = 0.8825	1117.9 ± 1.9	1678.6 ± 2.9
318.15 K, x1 = 0.9539	1131.12 ± 2.3	1718.1 ± 3.1
318.15 K, x1 = 1	1137.82 ± 2.5	1746.5 ± 3.2
320.65 K, x1 = 0.0497	802.647 ± 0.72	1112.8 ± 1.4
320.65 K, x1 = 0.101	836.46 ± 0.61	1153.9 ± 1.4
320.65 K, x1 = 0.201	892.395 ± 0.56	1228.4 ± 1.6
320.65 K, x1 = 0.3009	940.573 ± 0.54	1317.5 ± 1.7
320.65 K, x1 = 0.4057	983.53 ± 0.59	1380.5 ± 1.9
320.65 K, x1 = 0.4946	1014.85 ± 0.7	1443.5 ± 2.1
320.65 K, x1 = 0.603	1048.1 ± 0.95	1519 ± 2.3
320.65 K, x1 = 0.6765	1068.53 ± 1.2	1565.3 ± 2.4
320.65 K, x1 = 0.7918	1096.93 ± 1.6	1624.8 ± 2.7
320.65 K, x1 = 0.8825	1116.49 ± 1.9	1672.8 ± 2.9
320.65 K, x1 = 0.9539	1129.69 ± 2.3	1712.4 ± 3.1
320.65 K, x1 = 1	1136.45 ± 2.5	1741.3 ± 3.2
323.15 K, x1 = 0.0497	800.468 ± 0.72	1104.7 ± 1.4
323.15 K, x1 = 0.101	834.368 ± 0.61	1146 ± 1.4
323.15 K, x1 = 0.201	890.443 ± 0.57	1221 ± 1.6
323.15 K, x1 = 0.3009	938.735 ± 0.54	1310.5 ± 1.7
323.15 K, x1 = 0.4057	981.801 ± 0.59	1373.7 ± 1.9
323.15 K, x1 = 0.4946	1013.19 ± 0.7	1437 ± 2.1
323.15 K, x1 = 0.603	1046.54 ± 0.95	1512.7 ± 2.3
323.15 K, x1 = 0.6765	1066.98 ± 1.2	1559.4 ± 2.5
323.15 K, x1 = 0.7918	1095.47 ± 1.6	1618.9 ± 2.7
323.15 K, x1 = 0.8825	1115.06 ± 1.9	1667.2 ± 2.9
323.15 K, x1 = 0.9539	1128.27 ± 2.3	1706.7 ± 3.1
323.15 K, x1 = 1	1135.08 ± 2.5	1736 ± 3.2
